The values that follow come from ChEMBL document CHEMBL1201862, “PubChem BioAssay data set” (2004).

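96-well plates; 48 h exposure; 5 concentrations. Endpoints by linear interpolation between flanking doses. Not reached: highest tested concentration assigned. The concentration for 50% growth inhibition is given as GI50.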 Activity calls are given as the source filed them. Cut-off read from the data, not from the text of the source: active = GI50 up to about 1.1 µM and inactive = higher.

Test systems include MDA-MB-435; ACHN; SF-268; HT-29; MOLT-4; OVCAR-5; RPMI-8226; HOP-62; BT-549; SK-MEL-28; LOX IMVI; 786-0; PC-3; TK-10; SK-MEL-5; T47D; SF-295; K562; A498; Malme-3M.
Assay in all cases: growth of human tumour cells (NCI), 48 h

Consider `c1ccc(CSP234N5CCN2CCN3CCN4CC5)c(CSP234N5CCN2CCN3CCN4CC5)c1`, for which the GI50 in the experiment with MDA-MB-435 is > 100 µM (inactive); in the experiment with ACHN, > 100 µM (inactive); with SF-268, > 100 µM (inactive); with HT-29, 37.2 µM (inactive); in the experiment with MOLT-4, 65.2 µM (inactive); in the experiment with OVCAR-5 it was > 100 µM (inactive). Also, the GI50 was 27.7 µM (inactive) in the experiment with RPMI-8226; > 100 µM (inactive) with HOP-62; > 100 µM (inactive) in the experiment on BT-549; > 100 µM (inactive) in the experiment on SK-MEL-28; > 100 µM (inactive) with LOX IMVI; > 100 µM (inactive) with 786-0. For the same compound, the GI50 was > 100 µM (inactive) in the experiment on PC-3; > 100 µM (inactive) in the experiment with TK-10; 55 µM (inactive) with SK-MEL-5; > 100 µM (inactive) in the experiment on T47D; > 100 µM (inactive) with SF-295.
As to `C[C@@H](c1ccccc1)n1c(N)c(C#N)c2ccc([N+](=O)[O-])cc2c1=O`, the GI50 is 14.2 µM (inactive) with MDA-MB-435; 14.9 µM (inactive) in the experiment with ACHN; 29.7 µM (inactive) in the experiment with SF-268; 14.5 µM (inactive) in the experiment with HT-29; 1.69 µM (inactive) with BT-549; 15 µM (inactive) in the experiment on SK-MEL-28. Further, the GI50 in the experiment with LOX IMVI was 14.2 µM (inactive); with 786-0 it was 15 µM (inactive); in the experiment on PC-3, > 100 µM (inactive); in the experiment on TK-10, 11.6 µM (inactive); with SK-MEL-5, 16.7 µM (inactive); in the experiment with K562 it was 12.8 µM (inactive). Besides, the figures for the GI50 in the experiment with A498 and with T47D were 6.27 µM (inactive) and 15.7 µM (inactive), respectively.
`CN1C(NCCO)=NS(=O)(=O)c2ccccc21`: the GI50 with MDA-MB-435, in the experiment with ACHN, with SF-268, with HT-29, in the experiment on MOLT-4 and in the experiment with OVCAR-5 was > 100 µM (inactive) in each case. Besides, the GI50 in the experiment with HOP-62, in the experiment with BT-549, in the experiment on SK-MEL-28, in the experiment with LOX IMVI, in the experiment with 786-0 and in the experiment on PC-3 was > 100 µM (inactive) throughout. The GI50 in the experiment with TK-10, in the experiment with SK-MEL-5, in the experiment with K562, in the experiment on A498, with T47D and with SF-295 was > 100 µM (inactive) in each case.
In the case of `COc1ccc2c(c1)N=C1CSC(c3ccccc3Cl)N1C2` (stereo not drawn), the GI50 with MDA-MB-435 is 11.5 µM (inactive); with ACHN it was 11.8 µM (inactive); in the experiment on SF-268, 16.4 µM (inactive); in the experiment with HT-29 it was 4.82 µM (inactive); with MOLT-4, 0.659 µM (active); in the experiment on OVCAR-5, 8.97 µM (inactive). For the same compound, the GI50 in the experiment on RPMI-8226 was 12.2 µM (inactive); in the experiment on HOP-62, 14.5 µM (inactive); in the experiment with BT-549, 43.2 µM (inactive); in the experiment with SK-MEL-28, 17.6 µM (inactive); in the experiment with LOX IMVI, 6.55 µM (inactive); in the experiment on 786-0, 11.5 µM (inactive). For the same compound, the GI50 in the experiment with PC-3 is 11.5 µM (inactive); in the experiment with TK-10, 17.1 µM (inactive); in the experiment with SK-MEL-5, 17.1 µM (inactive); in the experiment with K562, 7.82 µM (inactive); with T47D it was 19.5 µM (inactive); in the experiment with Malme-3M, 23.4 µM (inactive). In addition, the GI50 in the experiment on SF-295 was 13.3 µM (inactive).
Turning to `O=C1CSC(c2ccccc2O)N1c1ccc(Oc2ccc(Cl)cc2)c(Cl)c1` (stereo not drawn), the GI50 is 21.5 µM (inactive) in the experiment with MDA-MB-435; 28.2 µM (inactive) in the experiment on ACHN; 12.9 µM (inactive) with SF-268; 19.7 µM (inactive) in the experiment with HT-29; 25.9 µM (inactive) in the experiment with MOLT-4; 21.6 µM (inactive) in the experiment on OVCAR-5. For the same compound, the GI50 with RPMI-8226 is 19.8 µM (inactive); with HOP-62, 18.2 µM (inactive); in the experiment with BT-549 it was 13.1 µM (inactive); with SK-MEL-28, 19.5 µM (inactive); in the experiment with LOX IMVI, 16.6 µM (inactive); in the experiment with 786-0, 18.8 µM (inactive). The GI50 in the experiment with PC-3 is 22.3 µM (inactive); in the experiment on TK-10, 36.1 µM (inactive); in the experiment with SK-MEL-5, 17.2 µM (inactive); in the experiment on K562 it was 29.9 µM (inactive); in the experiment with T47D, 11.7 µM (inactive); in the experiment with Malme-3M, 11.9 µM (inactive). Further, in the experiment on SF-295, the GI50 is 16.3 µM (inactive).
Consider `O=C(Nc1ccc(N2C(=O)CSC2c2cccs2)cc1)c1ccc(N2C(=O)CSC2c2cccs2)cc1` (stereo not drawn), for which the GI50 in the experiment with MDA-MB-435 was 83.4 µM (inactive); in the experiment on ACHN, > 100 µM (inactive); in the experiment on SF-268, > 100 µM (inactive); in the experiment on HT-29, > 100 µM (inactive); with MOLT-4, 39.5 µM (inactive); in the experiment on OVCAR-5, > 100 µM (inactive). Besides, the GI50 is 95.3 µM (inactive) in the experiment on HOP-62; > 100 µM (inactive) in the experiment with BT-549; > 100 µM (inactive) with SK-MEL-28; 88.9 µM (inactive) in the experiment on LOX IMVI; 58.6 µM (inactive) in the experiment with 786-0; > 100 µM (inactive) in the experiment on PC-3. For the same compound, the GI50 with TK-10 is > 100 µM (inactive); with SK-MEL-5, > 100 µM (inactive); in the experiment with K562, 56.2 µM (inactive); with T47D, 46.5 µM (inactive); in the experiment with Malme-3M, > 100 µM (inactive); with SF-295, 53 µM (inactive).
For `CSC1(Cc2ccccn2)C(=O)Nc2cccc([N+](=O)[O-])c21` (stereo not drawn), the GI50 was > 100 µM (inactive) with MDA-MB-435; > 100 µM (inactive) in the experiment on ACHN; > 100 µM (inactive) in the experiment on SF-268; > 100 µM (inactive) with HT-29; 33.3 µM (inactive) in the experiment with MOLT-4; > 100 µM (inactive) in the experiment with OVCAR-5. The GI50 in the experiment with RPMI-8226 is 78 µM (inactive); in the experiment on HOP-62, > 100 µM (inactive); in the experiment on BT-549 it was > 100 µM (inactive); in the experiment on SK-MEL-28 it was 55.5 µM (inactive); with LOX IMVI it was 53.5 µM (inactive); with 786-0 it was > 100 µM (inactive). In addition, the GI50 in the experiment on PC-3 is > 100 µM (inactive); in the experiment with TK-10, > 100 µM (inactive); in the experiment on SK-MEL-5 it was > 100 µM (inactive); in the experiment on T47D it was 52.1 µM (inactive); in the experiment with Malme-3M, 47.9 µM (inactive); with SF-295, > 100 µM (inactive).
For `N=C(N)N/N=C/c1c(-c2ccc(Cl)c(Cl)c2Cl)nc2sccn12`, the GI50 was 1.85 µM (inactive) with MDA-MB-435; 3.23 µM (inactive) in the experiment with ACHN; 1.76 µM (inactive) in the experiment with SF-268; 1.64 µM (inactive) with HT-29; 1.49 µM (inactive) in the experiment on OVCAR-5; 1.69 µM (inactive) with HOP-62. Also, the GI50 in the experiment on BT-549 is 1.56 µM (inactive); in the experiment with SK-MEL-28, 1.73 µM (inactive); in the experiment with LOX IMVI it was 1.64 µM (inactive); in the experiment with 786-0 it was 1.41 µM (inactive); with PC-3, 2.72 µM (inactive); in the experiment with TK-10, 1.4 µM (inactive). Also, the GI50 with SK-MEL-5 was 1.74 µM (inactive); with A498 it was 1.1 µM (active); in the experiment on T47D, 1.59 µM (inactive); in the experiment on SF-295, 1.79 µM (inactive).
Take `Cc1ccsc1C(=O)C(CC(=O)c1cccs1)c1ccsc1` (stereo not drawn): the GI50 with MDA-MB-435 was > 100 µM (inactive); in the experiment on ACHN it was > 100 µM (inactive); in the experiment on SF-268, > 100 µM (inactive); in the experiment with HT-29, 93.1 µM (inactive); with MOLT-4, 77.3 µM (inactive); in the experiment on OVCAR-5, > 100 µM (inactive). The GI50 with HOP-62 was > 100 µM (inactive); in the experiment on BT-549, 66.5 µM (inactive); in the experiment with SK-MEL-28, > 100 µM (inactive); in the experiment with 786-0, > 100 µM (inactive); in the experiment with PC-3, 45.8 µM (inactive); with TK-10, > 100 µM (inactive). The GI50 in the experiment on SK-MEL-5 is 28.2 µM (inactive); in the experiment with K562 it was > 100 µM (inactive); with A498, > 100 µM (inactive); in the experiment with T47D it was 14.5 µM (inactive); in the experiment with Malme-3M, > 100 µM (inactive); in the experiment on SF-295, > 100 µM (inactive).
For the compound `Cc1ccnc(NC(=S)Nc2ccc([N+](=O)[O-])cc2)c1`, the GI50 was > 100 µM (inactive) with MDA-MB-435; > 100 µM (inactive) in the experiment on ACHN; 63.5 µM (inactive) in the experiment with SF-268; > 100 µM (inactive) in the experiment on HT-29; > 100 µM (inactive) in the experiment on MOLT-4; > 100 µM (inactive) in the experiment with RPMI-8226. Also, the GI50 in the experiment with HOP-62 was 78 µM (inactive); with BT-549 it was > 100 µM (inactive); in the experiment with SK-MEL-28 it was > 100 µM (inactive); in the experiment with LOX IMVI, > 100 µM (inactive); in the experiment on 786-0 it was 75.3 µM (inactive); in the experiment with PC-3, > 100 µM (inactive). Also, the GI50 in the experiment with TK-10 was > 100 µM (inactive); in the experiment on SK-MEL-5, > 100 µM (inactive); in the experiment with K562, > 100 µM (inactive); in the experiment with T47D it was > 100 µM (inactive); with SF-295, 62.8 µM (inactive).
For `COc1cc(C=C(c2ccc(N(C)C)cc2)c2ccc(N(C)C)cc2)c2ccccc2c1OC`, the GI50 in the experiment on MDA-MB-435 was 22.3 µM (inactive); in the experiment with ACHN, 49.4 µM (inactive); in the experiment with SF-268 it was > 100 µM (inactive); in the experiment on HT-29 it was 19 µM (inactive); in the experiment on MOLT-4, > 100 µM (inactive); in the experiment on OVCAR-5 it was > 100 µM (inactive). Also, the GI50 in the experiment on RPMI-8226 was 45.8 µM (inactive); in the experiment on HOP-62 it was 64 µM (inactive); with BT-549, 35.2 µM (inactive); in the experiment with SK-MEL-28, 93.8 µM (inactive); in the experiment with LOX IMVI, 64.9 µM (inactive); with 786-0 it was > 100 µM (inactive). For the same compound, the GI50 is 41.6 µM (inactive) with PC-3; > 100 µM (inactive) in the experiment on TK-10; 51.9 µM (inactive) with SK-MEL-5; 17.5 µM (inactive) with K562; > 100 µM (inactive) with T47D; 70.8 µM (inactive) in the experiment with Malme-3M. Besides, in the experiment on SF-295, the GI50 was 30.3 µM (inactive).
